Activity calls are given as the source filed them. No cut-off for these calls is given here.
What was measured:
[1] = test system: NCI-H526; experiment: Upregulation of LSD1 signal enrichment at super enhancers in human NCI-H526 cells at 1 uM; format: functional, cell-based
[2] = test system: NCI-H2171; experiment: Antitumor activity against human NCI-H2171 cells xenografted in nude mouse assessed as mean tumor volume at […] mg/kg, po administered daily measured twice weekly (reference value: 1553 +/- 339 mm3); format: functional; details: 1.25 mg/kg
[3] = test system: NCI-H1417; experiment: In vivo inhibition of LSD1 in human NCI-H1417 cells xenografted in nude mouse assessed as change in SNTB1 gene expression measured after 24 hrs post single administration by qRT-PCR analysis; format: functional, organism-based; details: dose 0.02-135 mg/kg
[4] = Effect on cleaved PARP level in human NCI-H524 cells assessed as relative expression at 100 nM measured after 14 days by Western blot analysis (reference value: […]); format: functional; details: time 14 day
[5] = Toxicity in dog assessed as multifocal hemorrhage in organs measured for 28 days; design: species or system Canis lupus familiaris; details: in vivo, 672 h, time 28 day
[6] = Effect on cleaved PARP level in human NCI-H2171 cells assessed as fold change at 1000 nM measured after 10 days by Western blot analysis (reference value: 1.00); format: functional; details: time 10 day
[7] = Effect on cleaved PARP level in human NCI-H146 cells assessed as relative expression at 1000 nM measured after 10 days by Western blot analysis (reference value: 0.27); format: functional; details: time 10 day
[8] = Effect on cleaved PARP level in human NCI-H1694 cells assessed as relative expression at 100 nM measured after 14 days by Western blot analysis (reference value: 0.25); format: functional; details: time 14 day
[9] = Effect on cleaved PARP level in human COLO-668 cells assessed as relative expression at 10 nM measured after 7 days by Western blot analysis (reference value: […]); format: functional; details: time 7 day
[10] = test system: NCI-H526; experiment: In vivo inhibition of LSD1 in human NCI-H526 cells xenografted in nude mouse assessed as change in FEZ1 gene expression administrated daily for 5 days by qRT-PCR analysis; format: functional, organism-based; details: dose 0.02-135 mg/kg, time 5.0 day
[11] = test system: NCI-H526; experiment: Upregulation of LSD1 signal enrichment at typical enhancers in human NCI-H526 cells at 1 uM; format: functional, cell-based
[12] = Effect on cleaved PARP level in human NCI-H69 cells assessed as relative expression at 10 nM measured after 7 days by Western blot analysis (reference value: 0.02); format: functional; details: time 7 day
[13] = test system: SHP77; experiment: Antitumor activity against human SHP77 cells xenografted in nude mouse assessed as mean tumor volume at […] mg/kg, po administered daily measured twice weekly (reference value: 2193 +/- 293 mm3); format: functional; details: 1.25 mg/kg
[14] = Effect on cleaved PARP level in human COLO-668 cells assessed as fold change at 10 nM measured after 14 days by Western blot analysis (reference value: 1.00); format: functional; details: time 14 day
[15] = Effect on cleaved PARP level in human NCI-H69 cells assessed as fold change at 100 nM measured after 10 days by Western blot analysis (reference value: 1.00); format: functional; details: time 10 day
[16] = Tmax in mouse tumor at 5 mg/kg, po by HPLC/MS/MS analysis; format: ADME, organism-based, Neoplasm
[17] = Toxicity in rat assessed as suppression of neutrophil in bone marrow measured for 28 days; format: cell-based; details: 672 h, time 28 day
[18] = test system: NCI-H526; experiment: In vivo inhibition of LSD1 in human NCI-H526 cells xenografted in nude mouse assessed as change in LIX1L gene expression measured after 24 hrs post single administration by qRT-PCR analysis; format: functional, organism-based; details: dose 0.06-135 mg/kg
[19] = Effect on cleaved PARP level in human NCI-H69 cells assessed as fold change at 1000 nM measured after 10 days by Western blot analysis (reference value: 1.00); format: functional; details: time 10 day
[20] = Effect on cleaved PARP level in human NCI-H510 cells assessed as relative expression at 100 nM measured after 10 days by Western blot analysis (reference value: 0.02); format: functional, NCI-H510A; details: time 10 day
[21] = Effect on cleaved PARP level in human NCI-H2171 cells assessed as fold change at 1000 nM measured after 14 days by Western blot analysis (reference value: 1.00); format: functional; details: time 14 day
[22] = test system: NCI-H526; experiment: Antitumor activity against human NCI-H526 cells xenografted in nude mouse assessed as tumor growth inhibition at 0.5 mg/kg, po administered daily measured twice weekly relative to control; format: functional; details: read-out: TGI
[23] = Effect on cleaved PARP level in human NCI-H524 cells assessed as relative expression at 1000 nM measured after 10 days by Western blot analysis (reference value: 0.95); format: functional; details: time 10 day
[24] = Toxicity in mouse xenografted with human NCI-H526 cells assessed as grooming behaviour at 1.5 mg/kg, po administered daily measured for 30 days; format: organism-based; details: in vivo, 720 h, time 30 day
[25] = Effect on cleaved PARP level in human NCI-H2171 cells assessed as fold change at 10 nM measured after 10 days by Western blot analysis (reference value: 1.00); format: functional; details: time 10 day
[26] = Effect on cleaved PARP level in human NCI-H526 cells assessed as fold change at 10 nM measured after 10 days by Western blot analysis (reference value: 1.00); format: functional; details: time 10 day
[27] = test system: NCI-H526; experiment: In vivo inhibition of LSD1 in human NCI-H526 cells xenografted in nude mouse assessed as change in ODZ2 gene expression measured after 24 hrs post single administration by qRT-PCR analysis; format: functional, organism-based; details: dose 0.06-135 mg/kg
[28] = Effect on cleaved PARP level in human NCI-H1694 cells assessed as fold change at 10 nM measured after 10 days by Western blot analysis (reference value: 1.00); format: functional; details: time 10 day
[29] = test system: SHP77; experiment: Effect on NSE gene expression in human SHP77 cells at 1 uM measured after 4 to 7 days by qRT-PCR analysis; format: functional, cell-based; details: time 4-7 day
[30] = Toxicity in rat assessed as declining clinical condition measured for 28 days; details: in vivo, 672 h, time 28 day
[31] = Effect on cleaved PARP level in human NCI-H524 cells assessed as relative expression at 100 nM measured after 10 days by Western blot analysis (reference value: 0.95); format: functional; details: time 10 day
[32] = AUC (0 to last) in mouse blood at 5 mg/kg, po by HPLC/MS/MS analysis; format: ADME, organism-based
[33] = Effect on cleaved PARP level in human NCI-H2171 cells assessed as relative expression at 10 nM measured after 7 days by Western blot analysis (reference value: 0.02); format: functional; details: time 7 day
[34] = Effect on cleaved PARP level in human NCI-H146 cells assessed as relative expression at 10 nM measured after 14 days by Western blot analysis (reference value: 2.42); format: functional; details: time 14 day
[35] = Tmax in mouse blood at 5 mg/kg, po by HPLC/MS/MS analysis; format: ADME, organism-based
[36] = test system: NCI-H526; experiment: Antitumor activity against human NCI-H526 cells xenografted in nude mouse assessed as tumor growth inhibition at 1.5 mg/kg, po administered daily measured twice weekly relative to control; format: functional; details: read-out: TGI
[37] = Effect on cleaved PARP level in human NCI-H146 cells assessed as relative expression at 100 nM measured after 7 days by Western blot analysis (reference value: […]); format: functional; details: time 7 day

For `O=C(O)c1ccc(CN2CCC(CN[C@@H]3C[C@H]3c3ccccc3)CC2)cc1` [GSK2879552], the Activity [1] was “Active”, the Activity [2] was 1055 mm3 and the inhibition [3] was “Dose-Dependent Effect”. The Activity [4] was 1.13, the Activity [5] was “Toxic” and the “fold change (FC)” value [6] was 1.33. It also gave an Activity [7] of 0.24, an Activity [8] of 0.23 and an Activity [9] of 1.07. The inhibition [10] was “Dose-Dependent Effect”, the Activity [11] was “Active” and the Activity [12] was 0.02. For the same compound, the Activity [13] was 1845 mm3, the “fold change (FC)” value [14] was 0.41 and the “fold change (FC)” value [15] was 1.62. The Tmax [16] was 30 min, the Activity [17] was “Toxic” and the inhibition [18] was “Dose-Dependent Effect”. For the same compound, the “fold change (FC)” value [19] was 2.5, the Activity [20] was 0.18 and the “fold change (FC)” value [21] was 2.4. For the same compound, the inhibition in vivo at 0.5 mg/kg [22] was 48%, the Activity [23] was 0.79 and the Activity [24] was “Non-Toxic”. The “fold change (FC)” value [25] was 1.33, the “fold change (FC)” value [26] was 0.57 and the inhibition [27] was “Dose-Dependent Effect”. For the same compound, the “fold change (FC)” value [28] was 0.88, the Activity [29] was “inactive” and the Activity [30] was “Toxic”. For the same compound, the Activity [31] was 0.67, the AUC(0-t) [32] was 853 ng·h/mL and the Activity [33] was 0.03. For the same compound, the Activity [34] was 1.54, the Tmax [35] was 15 min and the inhibition in vivo at 1.5 mg/kg [36] was 57%. The Activity [37] was 2.21.
